In patent US20220280514A1, “METHODS OF TREATING BILE ACID DIARRHEA” (THE REGENTS OF THE UNIVERSITY OF CALIFORNIA, priority 2019, published 2022):
pIC50: −log10 of the molar value.

What was measured:
[1] = target: T1, CFTR (Mus musculus, UniProt P26361); assay: Short-circuit current measurement in mouse distal colon (ex vivo)
T1 construct: a full-thickness fragment is mounted in a micro-Ussing chamber; from tissue; host or cells: CD1 mouse colon, full-thickness fragment
Text: For intestinal short-circuit current measurement, CD1 mice are anesthetized with isoflurane. The colon is removed, washed with ice-cold Krebs buffer, opened along the mesenteric border, and a full-thickness fragment is mounted in a micro-Ussing chamber (area 0.7 cm^2, World Precision Instruments). Hemichambers are filled with oxygenated Krebs-bicarbonate solution.

[2] = target: T1, CFTR; assay: CDCA-induced fluid secretion in closed intestinal loops in mice; format: in vivo; settings: for reduction in loop fluid accumulation: 5 mg/kg intraperitoneally 60 min before
Protocol: CD1 mice (age 8-10 weeks) are given access to 5% dextrose water but not solid food for 24 h before experiments. Mice are administered (R)-BPO-27 (5 mg/kg) or vehicle (5% DMSO, 10% Kolliphor HS in saline) intraperitoneally 60 min before creation of closed intestinal (mid-jejunal or distal colonic) loops and injection of CDCA or PBS vehicle. […] See Cil, O., et al. (2017) Benzopyrimido-pyrrolo-oxazine-dione CFTR inhibitor (R)-BPO-27 for antisecretory therapy of diarrheas caused by bacterial enterotoxins. FASEB J 31, 751-760. For creation of loops, mice are anesthetized with isoflurane, and body temperature is maintained during surgery at 36-38° C. using a heating pad. A small abdominal incision is made to expose the intestine. For the mid-jejunal closed-loop model, 2-3 cm loops are created by sutures. Loops are injected with 100 μl PBS containing CDCA or PBS vehicle. The abdominal incision is closed with sutures, and mice are allowed to recover from anesthesia. In the colonic closed-loop model, mice are given an enema (500 μl of mineral oil) 12 hours before surgery to cleanse the colon of solids as previously reported (Haggie, P. M., et al. (2018) SLC26A3 inhibitor identified in small molecule screen blocks colonic fluid absorption and reduces constipation. JCI Insight 3, e121370) and a 1-2 cm closed loop is created by sutures. Intestinal loops are surgically removed at specified times, and loop length and weight is measured to quantify fluid secretion. In some experiments, CF mice (ΔF508 homozygous, age 8-10 weeks) are used.

[3] = target: T2, CFTR (Homo sapiens, UniProt P13569); assay: Short-circuit current in primary human colonoid monolayer cultures; format: cell-based; design: Human cultures are generated from isolated intestinal crypts embedded in Matrigel; endogenous in cells; host or cells: primary human colonoid monolayers from three subjects; settings: human colonoid monolayers
Text: Human colonoid cultures are generated from de-identified tissue samples (other than age and sex) obtained from endoscopic or surgical procedures from three different subjects. Human cultures are generated from isolated intestinal crypts embedded in Matrigel (Corning, Tewksbury, Mass.) in 24-well plates and cultured in the presence of Wnt3A, R-spondin-1 and Noggin containing undifferentiated media (UDM) as described in Zachos, N. C. et. al (2016) Human enteroids/colonoids and intestinal organoids functionally recapitulate normal intestinal physiology and pathophysiology. J Biol Chem 291, 3759-3766; In, J., et al. (2016) Enterohemorrhagic Escherichia coli reduce mucus and intermicrovillar bridges in human stem cell-derived colonoids. Cell Mol Gastroenterol Hepatol 2, 48-62. Matrigel cultures in UDM media are used for the propagation of colonoids. To generate monolayer cultures, colonoids are triturated in Cultrex Organoid Harvesting Solution (Trevigen, Gaithersburg, Md.), and the fragments are collected by centrifugation and resuspended in UDM. Colonoid fragments (100 μL) are seeded onto 0.4 μm pore polyester membrane 24-well cell culture inserts (Transwell; Corning, Tewksbury, Mass.) pre-coated with human collagen IV (34 μg/mL; Millipore Sigma). […] Under these conditions, cultures reach confluency in 7-14 days as monitored by transepithelial resistance. […]

[4] = mice; 5 mg/kg intraperitoneally; cited from earlier work
[5] = target: T3, CFTR (Rattus norvegicus, UniProt P34158); assay: Rat model of bile acid diarrhea (mid-colonic CDCA infusion); format: in vivo
T3 construct: from tissue; host or cells: Sprague-Dawley rats in vivo, colon
Protocol: Female Sprague-Dawley rats (age 8-10 weeks) are administered 500 μl CDCA (10 mM in PBS) or PBS vehicle by a mid-colonic infusion using a flexible plastic tube (15 gauge, 78 mm length, Instech Laboratories, Plymouth Meeting, Pa.). Rats are intraperitoneally administered (R)-BPO-27 (10 mg/kg) (or vehicle control) 30 min before infusion. (R)-BPO-27 is dissolved in saline containing 5% DMSO and 10% Kolliphor HS. Following the infusion, rats are placed individually in metabolic cages and given free access to water and food. Stool samples are collected prior to infusion (for baseline stool water content) and over 4 hours after the infusion. Stools are weighed immediately when visualized to determine wet weight. To determine stool water content, the stool samples are dried at 70° C. for 24 hours and water content is calculated as (wet weight−dry weight)/wet weight.

[6] = target: T2, CFTR; assay: Short-circuit current measurements in T84 cells (bile acid-induced secretory current); format: cell-based; design: short-circuit current provides a direct measure of apical CFTR Cl^− current; host or cells: T84 cells; settings: for block of the increase in short-circuit current following CDCA application: CDCA 0.75 mM both bathing solutions, inhibitor 10 μM; for prosecretory response (increase in short-circuit current) to bile acid: bile acid added to both apical and basolateral bathing solutions
Protocol: T84 cells (ATCC CCL-248) are cultured in a 1:1 mixture of DMEM/Ham's F-12 medium supplemented with 10% FBS, 100 U/mL penicillin and 100 μg/mL streptomycin. Cells are grown on Snapwell inserts (Costar Corning, Horseheads, N.Y.) at 37° C. in 5% CO2/95% air and used 7-14 days after plating.
T84 cells are mounted in Ussing chambers and bathed in symmetrical HCO3^−-buffered solution containing (in mM): 120 NaCl, 5 KCl, 1 MgCl2, 1 CaCl2), 10 D-glucose, 5 HEPES and 25 NaHCO3 (pH 7.4). The solutions are aerated with 95% O2/5% CO2 and maintained at 37° C. In one study, for measurement of apical Cl^− conductance, a basolateral to apical Cl^− gradient is applied in which the basolateral hemichamber contains (in mM): 120 NaCl, 1 MgCl2, 1 CaCl2, 10 D-glucose, 5 HEPES and 25 NaHCO3 (pH 7.4); in the apical solution 120 mM NaCl is replaced by 5 mM NaCl and 115 mM Na-gluconate, and the basolateral membrane is permeabilized with 250 µg/ml amphotericin B. Short-circuit current is measured using an EVC4000 multichannel voltage clamp (World Precision Instruments, Sarasota, Fla.).

[7] = test system: T84 cells; assay: Intracellular Ca2+ measurement by Fluo-4 fluorescence in T84 cells; format: cell-based; settings: CDCA 0.75 or 1 mM, ATP or carbachol 100 μM, BAPTA-AM 30 μM pretreatment 30 min
Protocol: T84 cells are plated in 96-well black-walled microplates. Confluent cells are loaded with Fluo-4 NW (Invitrogen, Carlsbad, Calif.) at 72 h after plating. For Ca^2+ measurement Fluo-4 fluorescence is measured with a FluoStar fluorescence plate reader (BMG Lab Technologies, Durham, N.C.) at excitation/emission wavelengths of 485/538 nm. In some studies cells are pretreated for 30 min with BAPTA-AM. Ca^2+ measurement in human colonoid cultures is done in monolayers that are transduced with the fluorescent Ca^2+ sensor Adeno-GCsMP6s. For cAMP assay, T84 cells are grown in 24-well plates, treated for 30 min with CDCA and/or forskolin, lysed by repeating freeze/thaw, centrifuged to remove cell debris, and the supernatant is assayed for cAMP using the Parameter cAMP immunoassay kit according to the manufacturer's instructions (R&D Systems, Minneapolis, […].).

[8] = closed mid-jejunal loops, CDCA 10 mM

T3 sequence (P34158 whole entry, the tested form may be a part): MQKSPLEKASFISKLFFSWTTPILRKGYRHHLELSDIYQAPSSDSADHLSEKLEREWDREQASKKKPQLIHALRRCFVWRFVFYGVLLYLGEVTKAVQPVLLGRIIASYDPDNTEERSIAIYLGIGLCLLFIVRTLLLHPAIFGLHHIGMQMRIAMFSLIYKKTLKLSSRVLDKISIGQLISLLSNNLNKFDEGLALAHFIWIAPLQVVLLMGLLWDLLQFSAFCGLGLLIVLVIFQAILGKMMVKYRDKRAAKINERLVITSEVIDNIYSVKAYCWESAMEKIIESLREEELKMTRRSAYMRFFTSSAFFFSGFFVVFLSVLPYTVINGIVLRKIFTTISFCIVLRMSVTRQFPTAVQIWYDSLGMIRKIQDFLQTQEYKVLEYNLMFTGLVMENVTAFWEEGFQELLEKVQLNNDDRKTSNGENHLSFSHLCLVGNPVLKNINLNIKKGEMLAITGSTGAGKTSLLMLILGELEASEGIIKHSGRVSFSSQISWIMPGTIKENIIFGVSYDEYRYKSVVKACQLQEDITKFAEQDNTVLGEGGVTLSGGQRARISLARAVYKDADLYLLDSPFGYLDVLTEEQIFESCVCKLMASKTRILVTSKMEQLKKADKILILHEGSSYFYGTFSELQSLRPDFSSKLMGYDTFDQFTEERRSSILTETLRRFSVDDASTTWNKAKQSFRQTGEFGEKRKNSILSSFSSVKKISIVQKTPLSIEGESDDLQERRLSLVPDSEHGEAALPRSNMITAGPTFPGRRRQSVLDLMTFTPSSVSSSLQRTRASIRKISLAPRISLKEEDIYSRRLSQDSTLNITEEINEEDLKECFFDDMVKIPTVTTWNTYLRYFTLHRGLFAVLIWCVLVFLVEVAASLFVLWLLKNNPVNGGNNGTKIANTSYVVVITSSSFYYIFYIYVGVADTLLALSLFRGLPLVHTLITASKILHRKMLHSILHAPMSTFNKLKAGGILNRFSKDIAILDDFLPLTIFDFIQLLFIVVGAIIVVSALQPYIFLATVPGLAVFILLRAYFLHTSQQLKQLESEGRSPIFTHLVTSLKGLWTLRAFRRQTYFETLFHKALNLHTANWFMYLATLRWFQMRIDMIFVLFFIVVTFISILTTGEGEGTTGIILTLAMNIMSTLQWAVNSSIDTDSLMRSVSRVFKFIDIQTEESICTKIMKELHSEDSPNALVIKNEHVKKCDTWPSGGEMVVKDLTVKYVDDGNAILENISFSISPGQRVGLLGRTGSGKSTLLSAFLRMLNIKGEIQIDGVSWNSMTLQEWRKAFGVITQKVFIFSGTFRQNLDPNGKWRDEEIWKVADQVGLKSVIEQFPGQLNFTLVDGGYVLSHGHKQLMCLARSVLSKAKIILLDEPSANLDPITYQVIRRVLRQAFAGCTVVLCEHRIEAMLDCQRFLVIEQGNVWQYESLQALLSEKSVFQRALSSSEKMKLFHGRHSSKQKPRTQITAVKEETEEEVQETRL
T2 sequence (P13569 whole entry): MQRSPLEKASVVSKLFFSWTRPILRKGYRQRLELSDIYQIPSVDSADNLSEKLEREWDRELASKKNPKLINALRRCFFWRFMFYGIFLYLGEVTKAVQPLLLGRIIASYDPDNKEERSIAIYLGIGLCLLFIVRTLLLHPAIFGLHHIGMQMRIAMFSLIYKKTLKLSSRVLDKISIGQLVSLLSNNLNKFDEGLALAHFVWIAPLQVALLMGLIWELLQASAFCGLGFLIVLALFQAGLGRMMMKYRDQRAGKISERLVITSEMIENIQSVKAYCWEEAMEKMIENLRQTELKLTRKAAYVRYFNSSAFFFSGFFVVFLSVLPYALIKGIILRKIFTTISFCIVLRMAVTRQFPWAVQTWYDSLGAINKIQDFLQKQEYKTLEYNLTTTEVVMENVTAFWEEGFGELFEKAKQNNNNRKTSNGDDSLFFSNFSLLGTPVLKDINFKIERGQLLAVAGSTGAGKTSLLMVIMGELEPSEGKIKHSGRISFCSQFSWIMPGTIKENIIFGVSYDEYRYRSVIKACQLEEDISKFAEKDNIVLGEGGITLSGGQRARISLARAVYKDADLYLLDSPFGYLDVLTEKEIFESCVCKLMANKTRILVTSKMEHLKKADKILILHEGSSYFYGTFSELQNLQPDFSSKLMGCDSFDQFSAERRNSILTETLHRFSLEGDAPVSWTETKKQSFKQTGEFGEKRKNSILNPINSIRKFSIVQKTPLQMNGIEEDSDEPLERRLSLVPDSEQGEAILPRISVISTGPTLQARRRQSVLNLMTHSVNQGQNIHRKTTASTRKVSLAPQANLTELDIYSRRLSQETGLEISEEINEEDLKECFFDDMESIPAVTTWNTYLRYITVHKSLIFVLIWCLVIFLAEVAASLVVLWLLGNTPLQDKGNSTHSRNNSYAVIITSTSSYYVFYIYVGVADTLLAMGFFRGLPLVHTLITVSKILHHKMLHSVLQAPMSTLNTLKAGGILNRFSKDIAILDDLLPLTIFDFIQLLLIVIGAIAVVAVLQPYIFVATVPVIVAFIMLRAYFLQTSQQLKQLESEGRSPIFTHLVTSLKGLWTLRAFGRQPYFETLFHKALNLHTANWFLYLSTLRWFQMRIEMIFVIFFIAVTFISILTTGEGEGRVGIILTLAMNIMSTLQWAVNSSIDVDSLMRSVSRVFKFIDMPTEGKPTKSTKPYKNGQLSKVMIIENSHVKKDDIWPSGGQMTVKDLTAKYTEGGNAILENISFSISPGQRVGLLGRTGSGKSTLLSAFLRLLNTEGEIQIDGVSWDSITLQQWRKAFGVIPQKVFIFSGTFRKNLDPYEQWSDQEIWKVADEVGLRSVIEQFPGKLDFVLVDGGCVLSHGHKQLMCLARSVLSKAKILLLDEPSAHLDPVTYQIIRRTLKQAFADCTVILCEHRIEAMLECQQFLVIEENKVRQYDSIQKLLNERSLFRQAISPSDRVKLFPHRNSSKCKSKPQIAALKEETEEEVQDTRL
T1 sequence (P26361 whole entry, the tested form may be a part): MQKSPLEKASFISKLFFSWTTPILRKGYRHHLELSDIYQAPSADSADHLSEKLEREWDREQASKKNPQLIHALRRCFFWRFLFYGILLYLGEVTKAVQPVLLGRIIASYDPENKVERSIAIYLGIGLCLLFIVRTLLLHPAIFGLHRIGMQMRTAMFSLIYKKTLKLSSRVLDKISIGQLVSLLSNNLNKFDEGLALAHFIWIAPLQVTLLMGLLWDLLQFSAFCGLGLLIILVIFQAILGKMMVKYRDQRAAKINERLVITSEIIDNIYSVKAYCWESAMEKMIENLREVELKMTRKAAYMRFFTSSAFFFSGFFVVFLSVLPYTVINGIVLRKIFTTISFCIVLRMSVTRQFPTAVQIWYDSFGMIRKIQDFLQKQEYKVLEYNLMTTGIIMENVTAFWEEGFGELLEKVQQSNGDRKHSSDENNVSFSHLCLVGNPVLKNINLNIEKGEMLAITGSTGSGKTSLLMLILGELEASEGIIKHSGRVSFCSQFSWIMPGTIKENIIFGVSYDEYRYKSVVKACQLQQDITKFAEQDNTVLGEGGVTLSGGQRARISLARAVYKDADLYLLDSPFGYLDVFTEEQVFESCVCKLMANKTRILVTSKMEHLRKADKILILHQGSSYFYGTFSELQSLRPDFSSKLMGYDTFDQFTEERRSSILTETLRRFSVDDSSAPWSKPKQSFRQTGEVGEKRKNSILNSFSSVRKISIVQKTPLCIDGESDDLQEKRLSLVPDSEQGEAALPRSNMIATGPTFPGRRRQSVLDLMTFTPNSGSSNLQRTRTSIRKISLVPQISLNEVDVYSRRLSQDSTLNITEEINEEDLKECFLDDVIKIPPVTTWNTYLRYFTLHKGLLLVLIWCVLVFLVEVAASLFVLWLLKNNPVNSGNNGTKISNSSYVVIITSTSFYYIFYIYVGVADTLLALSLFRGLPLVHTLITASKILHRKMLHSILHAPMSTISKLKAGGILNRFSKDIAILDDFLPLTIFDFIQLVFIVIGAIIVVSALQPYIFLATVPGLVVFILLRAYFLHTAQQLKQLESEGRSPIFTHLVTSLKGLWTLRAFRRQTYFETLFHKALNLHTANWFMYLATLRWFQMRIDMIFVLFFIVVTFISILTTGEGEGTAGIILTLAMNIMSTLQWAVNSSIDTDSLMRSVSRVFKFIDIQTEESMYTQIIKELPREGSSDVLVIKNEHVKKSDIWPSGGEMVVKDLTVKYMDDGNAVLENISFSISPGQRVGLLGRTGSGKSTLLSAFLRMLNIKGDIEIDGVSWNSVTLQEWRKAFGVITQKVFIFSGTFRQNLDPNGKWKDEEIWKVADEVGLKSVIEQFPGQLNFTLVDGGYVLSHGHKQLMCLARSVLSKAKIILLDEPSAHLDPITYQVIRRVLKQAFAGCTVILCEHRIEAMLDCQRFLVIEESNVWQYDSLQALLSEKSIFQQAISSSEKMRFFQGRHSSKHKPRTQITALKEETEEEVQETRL

With Cn1c(=O)c2c(-c3ccccc3)n3c(c2n(C)c1=O)[C@H](c1ccc(Br)o1)Oc1ccc(C(=O)O)cc1-3 [(R)-BPO-27, 6-(5-Bromofuran-2-yl)-7,9-dimethyl-8,10-dioxo-11-phenyl-7,8,9,10-tetrahydro-6H-benzo[b]pyrimido [4′,5′:3,4]pyrrolo [1,2-d][1,4]oxazine-2-carboxylic acid] the “change in short-circuit current after (R)-BPO-27” value ([1]; after apical CDCA 1 mM, (R)-BPO-27 10 μM, mean±S.E.M., n=3) was −5.2±1.7 μA/cm^2, the “reversal of CDCA-induced short-circuit current” value ([1]; apical CDCA 1 mM, (R)-BPO-27 10 μM) was “fully reversed” and the “reduction in loop fluid accumulation” value ([2]; closed colonic loops, CDCA 2.5, 10 mM) was about 70%. The “reduction in loop fluid accumulation” value [2, 8] was 55%, the “reversal of CDCA-induced increase in short-circuit current” value ([3]; apical CDCA, (R)-BPO-27 5 μM) was “reversed” and the serum levels [4] was “therapeutic serum levels for several hours”. The “effect on stool quantity or water content” value ([5]; rats receiving mid-colonic infusion of PBS, 10 mg/kg intraperitoneally) was “does not affect”, the “inhibition of the increase in stool water content” value ([5]; rats, mid-colonic CDCA infusion 10 mM, 10 mg/kg intraperitoneally 30 min before, stool over 4 hours) was about 55% and the “block of the increase in short-circuit current following CDCA application” value ([6]; T84 cells) was “fully blocked”. For the same compound, the “block of secretory current produced by CDCA, DCA and their taurine conjugates” value ([6]; T84 cells, bile acids in apical and basolateral solutions, (R)-BPO-27 10 μM) was “blocked”, the pIC50 ([6]; T84 cells, concentration-dependence studies, data not shown, read-out: IC50 for inhibition of CDCA-induced short-circuit current) was over 6.00 and the “block of increased current after CDCA followed by forskolin” value ([6]; T84 cells, forskolin 10 μM, (R)-BPO-27 10 μM) was “fully blocked”. The “inhibition of CDCA-activated apical CFTR Cl− current” value ([6]; basolateral membrane-permeabilized T84 monolayers, Cl− gradient, apical CDCA 0.75 or 1 mM, (R)-BPO-27 10 μM) was “inhibition by (R)-BPO-27 is confirmed”.
For Cn1c(=O)c2c(-c3ccccc3)n3c(c2n(C)c1=O)[C@@H](c1ccc(Br)o1)Oc1ccc(C(=O)O)cc1-3 [(S)-BPO-27, 6-(5-Bromofuran-2-yl)-7,9-dimethyl-8,10-dioxo-11-phenyl-7,8,9,10-tetrahydro-6H-benzo[b]pyrimido [4′,5′:3,4]pyrrolo [1,2-d][1,4]oxazine-2-carboxylic acid, reference compound], the “effect on loop fluid accumulation (in words)” value [2, 8] was “no significant effect”.
In the case of CC(=O)OCOC(=O)CN(CC(=O)OCOC(C)=O)c1ccccc1OCCOc1ccccc1N(CC(=O)OCOC(C)=O)CC(=O)OCOC(C)=O [BAPTA-AM, 1,2-Bis(2-aminophenoxy)ethane-N,N,N′,N′-tetraacetic acid tetrakis(acetoxymethyl ester), reference compound], the “block of Ca2+ elevations” value [7] was “largely blocked”, the “reduction of CDCA-induced increase in short-circuit current by pretreatment” value ([3]; CDCA 0.5 mM, BAPTA-AM 30 μM pretreatment 20 min) was “greatly reduced” and the “block of CDCA-induced increase in short-circuit current by pretreatment” value ([6]; T84 cells, CDCA 1 mM, BAPTA-AM 30 μM pretreatment 25 min) was “largely blocked”.
For C[C@H](CCC(=O)O)[C@H]1CC[C@H]2[C@@H]3[C@H](O)C[C@@H]4C[C@H](O)CC[C@]4(C)[C@H]3CC[C@]12C [CDCA, chenodeoxycholic acid, reference compound], the “increase in short-circuit current” value ([1]; CDCA 1 mM added to apical bathing solution, mean±S.E.M., n=3) was 5.2±1.4 μA/cm^2, the “increase in short-circuit current (in words)” value ([1]; CDCA added to basolateral bathing solution) was “No increase in short-circuit current” and the “increase in stool water content” value ([5]; rats, mid-colonic infusion of CDCA 10 mM, stool over 4 hours) was about 25%. For the same compound, the “prosecretory response (increase in short-circuit current) to bile acid” value ([6]; T84 cells) was “robust secretory current”.
With O=C(O)c1ccc(/C=C2\SC(=S)N(c3cccc(C(F)(F)F)c3)C2=O)cc1 [CFTRinh-172, 4-[[4-Oxo-2-thioxo-3-[3-(trifluoromethyl)phenyl]-5-thiazolidinylidene]methyl]benzoic acid, reference compound] the “block of the increase in short-circuit current following CDCA application” value ([6]; T84 cells) was “fully blocked”.
In the case of C[C@H](CCC(=O)O)[C@H]1CC[C@H]2[C@@H]3[C@H](O)C[C@@H]4C[C@H](O)CC[C@]4(C)[C@H]3C[C@H](O)[C@]12C [cholic acid, reference compound], the “prosecretory response (increase in short-circuit current) to bile acid” value ([6]; T84 cells) was “No increase in short-circuit current”.
